Measured values reported in patent US20070004674A1, “Remedy for diseases associated with immunoglobulin gene translocation” (Kyowa Hakko Kogyo Co. Ltd., priority 2003, published 2007).

Experiments:
[1] = system: multiple myeloma cells; details: mice to which multiple myeloma cells were transplanted; Blood, 100, 392 (2002); cited from earlier work
[2] = system: Raf-1; experiment: Western blot: Raf-1 level in KMS-11 cells; format: cell-based, human; details: KF58333 4.0, 20 and 100 nmol/l, 40 hours, FIG. 1
Procedure: (§1) KMS-11 cells derived from human multiple myeloma [In Vitro Cell. Dev. Biol., 25, 723 (1989)], which were diluted to 10,000 cells/ml with RPMI 1640 medium containing 10% fetal bovine serum (hereinafter referred to as “culturing medium”), were put in plastic culture flasks (125 cm^2, Nunc) in 30 ml portions. KMS-11 cells are reported to be the cells in which a large amount of FGFR3 is expressed as a result of translocation between immunoglobulin gene on 14q32 and FGFR3 gene on 4p16.3 [Blood, 90, 4062 (1997)]. […]
(§2) To the thus recovered cells was added a cooled lysis buffer (50 mmol/l HEPES NaOH, pH 7.4, 250 mmol/l sodium chloride, 1 mmol/l ethylenediamine tetraacetate, 1% Nonidet P-40, 1 mmol/l dithiothreitol, 1 mmol/l phenylmethylsulfonyl fluoride, 5 μg/ml leupeptin), and the mixture was allowed to stand at 4° C. for 30 minutes for cytolysis, followed by centrifugation at 20000 G for 10 minutes. The concentration of proteins in the supernatant thus obtained was measured, and the samples were adjusted so that the amount of proteins per each lane was the same. […]
(§3) The separated protein samples were each transferred to a polyvinylidene difluoride membrane (Millipore). […] The band of each protein was detected by FluorImager (Molecular Dynamics) after reaction with ECF reagent (Molecular Dynamics).

[3] = system: Erk2; experiment: Western blot: Erk2 level in KMS-11 cells; format: cell-based, human; details: KF58333 4.0, 20 and 100 nmol/l, 40 hours, FIG. 1, Erk2 is not an Hsp90 client protein
Procedure: as §1, §2, §3

[4] = system: Cdk6; experiment: Western blot: Cdk6 level in KMS-11 cells; format: cell-based, human; details: KF58333 4.0, 20 and 100 nmol/l, 40 hours, FIG. 1
Procedure: as §1, §2, §3

[5] = system: KMS-11 cells; experiment: Growth inhibition of KMS-11 cells (XTT); format: cell-based; details: Homo sapiens, 72 hours, calculated from the graph of FIG. 2, read-out: concentration to inhibit cell growth by 50% (GI50 value)
Procedure: KMS-11 cells diluted to 2×10^5 cells/ml with the culturing medium were pipetted into a 96-well microplate (Nunc) in an amount of 50 μl ([…]) per well. To each well was added 50 μl of a solution prepared by diluting a 10 mmol/l solution of KF58333 in DMSO to 600 nmol/l with the culturing medium and further serially diluting the resulting solution threefold with the culturing medium so as to make the final concentrations of KF58333 of 300, 100, 33.3, 11.1, 3.70 and 1.23 nmol/l, respectively. […] Thereafter, incubation was carried out in a 5% CO2 incubator at 37° C. for 72 hours, and the number of living cells was measured in the following manner. […] Then, the absorbance at 450 nm and 655 nm was measured using a microplate spectrophotometer (Model 550, BIO-RAD). A value (difference in absorbance) was calculated by subtracting the absorbance at 655 nm from that at 450 nm for each well. Since the number of living cells is proportional to the difference in absorbance, the rate (%) of the value of difference in absorbance obtained for cells to which various concentrations of KF58333 were added to that obtained for control cells to which KF58333 was not added when the latter value was designated as 100% was calculated as the rate of the number of living cells to that of control, and the cell growth inhibitory activity of KF58333 was measured.

[6] = system: KMS-11 cells; experiment: In vivo antitumor effect in KMS-11 cell-transplanted mice; details: KMS-11 subcutaneous tumor in scid mice, 25 mg/kg intravenously once a day for 5 consecutive days, measured up to day 24, FIG. 3
Procedure: In vivo antitumor effect of a compound having an inhibitory action on Hsp90 was examined using a human tumor model prepared by transplanting KMS-11 cells to immunodeficient mice as a model of a disease associated with immunoglobulin gene translocations.
KMS-11 cells were cultured in a 5% CO2 incubator at 37° C. using the culturing medium for propagation. One day before transplantation, 0.3 mg/mouse of anti-asialo GM1 antibody was intraperitoneally administered to 10 […] Fox C.B-17/Icr-scidJcl mice (CLEA JAPAN). One day after the administration of the antibody, the cultured KMS-11 cells (1×10^7 cells/mouse) were subcutaneously transplanted to the mice. Fourteen days after the transplantation, the longer diameter and shorter diameter of the tumor subcutaneously grown were measured with slide calipers, and the tumor volume was calculated according to the following equation: Tumor volume V(mm^3)={longer diameter (mm)×[shorter diameter(mm)]^2}/2
At the same time, the body weight of each mouse was measured, and the mice were divided into two groups of 5 mice each so that the tumor volume and the body weight are randomized. The day was defined as day 0 of the administration test, and drug administration was started in the following manner. […]

[7] = system: FGFR3; experiment: Western blot: intracellular disappearance of FGFR3 in KMS-11 cells; format: cell-based, human; details: KF58333 4.0, 20 and 100 nmol/l, 40 hours, FIG. 1
Procedure: as §1, §2, §3

| Compound | survival time of mice [1] | intracellular amount of Raf-1 (Western blot) [2] | intracellular amount of Erk2 (Western blot) [3] | intracellular amount of Cdk6 (Western blot) [4] | GI50 [5] | tumor growth (volume ratio V/V0) [6] | intracellular amount of FGFR3 (Western blot) [7] |
| --- | --- | --- | --- | --- | --- | --- | --- |
| C=CCNC1=C2C[C@@H](C)C[C@H](OC)[C@H](O)[C@@H](C)/C=C(\C)[C@H](OC(N)=O)[C@@H](OC)/C=C\C=C(/C)C(=O)NC(=CC1=O)C2=O [17-allylamino-17-demethoxy geldanamycin] | extended survival time | – | – | – | – | – | – |
| CC1CC2OC2\C=C/C=C/C(=N\OCCN2CCCC2=O)Cc2c(Cl)c(O)cc(O)c2C(=O)O1 (stereo not shown) [KF58333] | – | disappeared | no change | disappeared | 0.0198 µM | apparent suppression of tumor growth | disappeared |
